Measurements published in patent publication US8883449B2, “Single-chain insulin” (Novo Nordisk A/S, priority 2003, dated 2014).
Read-outs that look alike come from different tables or passages of the source. Bridges are numbered along the chain shown (N, C = ends). Where no end group is shown, it is not given here.

Biological target: human insulin receptor (Homo sapiens, UniProt P06213)
Assay type: binding
Experimental: Alternatively the insulin receptor binding was tested in a hIRBHK membrane assay as follows: • Binding of [^125I]-human insulin to membrane-associated recombinant human insulin receptor isoform A (hIR-A) • Reagents: • ^125I-Insulin: Novo Nordisk A/S, mono ^125I-(TyrA14) human insulin • Human Insulin: Novo Nordisk A/S, • Human serum albumin: Dade Behring, ORHA 194 C30, lot 455077 • Plastic ware: Packard OptiPlate™-96, #6,005,290 • Scintillant: Amersham Biosciences, WGA coated PVT microspheres, # RPNQ0001 • Cells: BHK tk^− ts13 cells expressing recombinant human insulin receptor isoform A (hIR12-14).
Extraction of membrane-associated insulin receptors: BHK cells from a ten-layer cell factory were harvested and homogenised in 25 ml of ice-cold buffer (25 mM HEPES pH 7.4, 2.5 mM CaCl2, 1 mM MgCl2, 250 mg/l bacitracin, 0.1 mM Pefablock). The homogenate was layered carefully on 41% sucrose cushions, centrifuged in the ultracentrifuge at 95,000×g for 75 minutes in a Beckman SW28 rotor at 4° C. The plasma membranes were collected from the top of the sucrose cushion, diluted 1:4 with buffer and centrifuged at 40,000×g for 45 min in a Beckman SW28 rotor. The pellets were suspended in buffer (25 mM HEPES pH 7.4, 2.5 mM CaCl2, 1 mM MgCl2, 250 mg/l bacitracin, 0.1 mM Pefablock) and stored at −80° C.
Radioligand binding to membrane-associated insulin receptors was performed in duplicate in 96-well OptiPlates. Membrane protein was incubated for 150 minutes at 25° C. with […] [^125I-Tyr^A14]-human insulin in a total volume of […] assay buffer (50 mM HEPES, 150 mM NaCl, 5 mM MgSO4, 0.01% Triton X-100, 0.1% HSA, Complete™ EDTA-free protease inhibitors) and increasing concentrations of human insulin or insulin analogues (typically between 0.01 and 300 nM). The assay was terminated by addition of 50 μl of a suspension of WGA-coated PVT microspheres (20 mg/ml). Following 5 minutes of slight agitation, the plate was centrifuged at 1500 RPM for 6 minutes, and bound radioactivity quantified by counting in a Packard TopCount NXT after a delay of 60 minutes. […]

[1] = acylated single-chain insulins of Examples 2-4

human insulin receptor, sequence (P06213 28-746 isoform P06213-2 limits assumed): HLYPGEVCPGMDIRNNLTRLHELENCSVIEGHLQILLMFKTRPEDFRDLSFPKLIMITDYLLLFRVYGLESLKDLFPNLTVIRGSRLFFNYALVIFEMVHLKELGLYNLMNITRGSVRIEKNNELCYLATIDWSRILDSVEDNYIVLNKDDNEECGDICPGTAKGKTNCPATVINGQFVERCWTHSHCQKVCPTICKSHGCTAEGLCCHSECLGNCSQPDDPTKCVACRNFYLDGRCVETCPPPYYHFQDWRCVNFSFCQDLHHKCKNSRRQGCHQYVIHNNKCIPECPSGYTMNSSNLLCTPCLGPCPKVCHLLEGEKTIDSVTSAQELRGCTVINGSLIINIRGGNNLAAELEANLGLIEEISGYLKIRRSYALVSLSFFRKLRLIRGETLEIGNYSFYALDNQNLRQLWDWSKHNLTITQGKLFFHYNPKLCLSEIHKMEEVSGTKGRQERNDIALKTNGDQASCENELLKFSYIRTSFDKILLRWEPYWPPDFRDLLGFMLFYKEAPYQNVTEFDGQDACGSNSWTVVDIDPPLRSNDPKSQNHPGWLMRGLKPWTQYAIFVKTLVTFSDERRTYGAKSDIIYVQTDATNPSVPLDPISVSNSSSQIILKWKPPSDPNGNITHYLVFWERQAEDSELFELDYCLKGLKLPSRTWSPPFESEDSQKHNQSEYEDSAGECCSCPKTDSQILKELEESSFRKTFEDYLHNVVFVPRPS
human insulin receptor, sequence (P06213 763-1382 partner limits assumed): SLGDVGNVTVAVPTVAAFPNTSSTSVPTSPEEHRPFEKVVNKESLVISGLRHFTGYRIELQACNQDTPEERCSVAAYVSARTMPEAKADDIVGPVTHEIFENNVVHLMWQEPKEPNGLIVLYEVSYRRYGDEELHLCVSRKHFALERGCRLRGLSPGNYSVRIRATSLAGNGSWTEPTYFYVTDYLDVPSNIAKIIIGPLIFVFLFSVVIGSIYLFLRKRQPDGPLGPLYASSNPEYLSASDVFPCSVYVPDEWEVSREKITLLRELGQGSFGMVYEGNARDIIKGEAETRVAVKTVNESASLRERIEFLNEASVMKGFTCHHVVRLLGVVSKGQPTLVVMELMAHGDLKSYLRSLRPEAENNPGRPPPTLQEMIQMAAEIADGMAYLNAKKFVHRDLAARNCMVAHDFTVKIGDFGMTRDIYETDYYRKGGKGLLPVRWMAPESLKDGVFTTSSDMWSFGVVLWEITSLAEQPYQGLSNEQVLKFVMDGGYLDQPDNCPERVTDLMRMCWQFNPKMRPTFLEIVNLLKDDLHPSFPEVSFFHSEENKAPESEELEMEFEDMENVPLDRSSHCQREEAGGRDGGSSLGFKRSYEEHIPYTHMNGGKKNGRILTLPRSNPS

For “B(1-29)-B3Q-B29R-TGLGK((eps)octadecandioyl)GQ-A(1-21)-A18Q-A21G Human insulin (FVQQHLCGSHLVEALYLVCGERGFFYTPRTGLGK(octadecandioyl)GQGIVEQCCTSICSLYQLEQYCG; disulfide 19-56, 42-47, 7-43) [Example 3]”, the “IC50 relative to human insulin in %.” value [1] was 0.1%.
In the case of `CCCCCCCCCCCCCC(=O)NCCCC[C@@H]1NC(=O)CNC(=O)[C@H](CC(C)C)NC(=O)CNC(=O)[C@H]([C@@H](C)O)NC(=O)[C@H](CCCNC(=N)N)NC(=O)[C@@H]2CCCN2C(=O)[C@H]([C@@H](C)O)NC(=O)[C@H](Cc2ccc(O)cc2)NC(=O)[C@H](Cc2ccccc2)NC(=O)[C@H](Cc2ccccc2)NC(=O)CNC(=O)[C@H](CCCNC(=N)N)NC(=O)[C@H](CCC(=O)O)NC(=O)CNC(=O)[C@@H]2CSSC[C@@H](C(=O)NCC(=O)O)NC(=O)[C@H](Cc3ccc(O)cc3)NC(=O)[C@H](CCC(N)=O)NC(=O)[C@H](CCC(=O)O)NC(=O)[C@H](CC(C)C)NC(=O)[C@H](CCC(N)=O)NC(=O)[C@H](Cc3ccc(O)cc3)NC(=O)[C@H](CC(C)C)NC(=O)[C@H](CO)NC(=O)[C@@H]3CSSC[C@H](NC(=O)[C@H](CCC(N)=O)NC(=O)[C@H](CCC(=O)O)NC(=O)[C@H](C(C)C)NC(=O)[C@H]([C@@H](C)CC)NC(=O)CNC(=O)[C@H](CCC(N)=O)NC(=O)CNC1=O)C(=O)N[C@@H](CSSC[C@H](NC(=O)[C@H](CC(C)C)NC(=O)[C@H](Cc1c[nH]cn1)NC(=O)[C@H](CCC(N)=O)NC(=O)[C@H](CCC(N)=O)NC(=O)[C@@H](NC(=O)[C@@H](N)Cc1ccccc1)C(C)C)C(=O)NCC(=O)N[C@@H](CO)C(=O)N[C@@H](Cc1c[nH]cn1)C(=O)N[C@@H](CC(C)C)C(=O)N[C@@H](C(C)C)C(=O)N[C@@H](CCC(=O)O)C(=O)N[C@@H](C)C(=O)N[C@@H](CC(C)C)C(=O)N[C@@H](Cc1ccc(O)cc1)C(=O)N[C@@H](CC(C)C)C(=O)N[C@@H](C(C)C)C(=O)N2)C(=O)N[C@@H]([C@@H](C)O)C(=O)N[C@@H](CO)C(=O)N[C@@H]([C@@H](C)CC)C(=O)N3` [Example 2, B(1-29)-B3Q-B29R-TGLGK((eps)myristoyl)GQ-A(1-21)-A18Q-A21G Human insulin], the “IC50 relative to human insulin in %.” value was 2%.
For “B(1-29)-B3Q-B29R-TGLGK((eps)hexadecandioyl-γ-L-Glu)GQ-A(1-21)-A 8Q-A21 G Human insulin [Example 4]”, the “IC50 relative to human insulin in %.” value [1] was 0.7%.
